From US4321372A, “Antiulcer thiazol-2-ylcarbamoyl-carboxylic acids, esters and amides” (Pfizer Inc., priority 1980, dated 1982)
Structures can show the parent of a compound that is named as a salt.

Assays:
[1] = test system: ethanol-induced rat ulcer; assay: Ethanol-induced rat ulcer assay (oral antiulcer activity); format: in vivo; settings: for inhibition at 5 mg/kg: Rattus norvegicus, po; for inhibition at 5 mg/kg / % Inhibition (oral activity in the ethanol-induced rat ulcer assay): 5 mg./kg. orally, 15 min before absolute ethanol (1.0 ml.), male fasted rats, 8/group, lesions scored 1 hour after ethanol, based on ulcer index vs controls
Experimental: The antiulcer activity of the compounds of the present invention is evaluated by an ethanol-induced rat ulcer assay, a test reflecting clinical utility of these compounds in the treatment of peptic ulcers, particularly gastric ulcers.
The effectiveness of the products of this invention as antiulcer agents is determined in an ethanol-induced rat ulcer assay. In this test, overnight fasted male rats are orally administered either drug (5 mg./kg.) dissolved or suspended in water or dilute NaOH, or water (controls), fifteen minutes prior to an orally administered dose of absolute ethanol (1.0 ml.). One hour after the ethanol challenge the animals (8/group) are killed and the stomachs examined for the presence of lesions. After sacrifice the abdomen is opened and a locking hemostate placed at the pylorus. Six ml. of a 4% solution of formaldehyde is injected into the stomach with a gastric feeding tube and a second locking hemostate is used to seal the esophagus. The stomach is removed, opened along the greater curvature and examined for ulceration.
The scoring system used to quantitate the ethanol-induced lesions is given below.
1 Normal appearing stomach
2 Pinpoint sized lesions
3 Lesions, 2 or fewer; pin-
5 Lesions with hemorrhage
For each group of animals an ulcer index is calculated as follows:
Ulceration Index=(the sum of the scores of the group)×(the sum of the number of ulcers in the group)×(the fraction of the group having any incidence of ulceration).
The percent inhibition of ulcers is calculated as follows:
% Inhibition=100×[(ulcer index controls)-(ulcer index drug-treated)].div.(ulcer index controls).

gastric ulcers = settings: animals, including humans; cited from earlier work
antiallergic activity = settings: cited from earlier work

Row | Molecule | inhibition at 5 mg/kg [1] [%] | % Inhibition (oral activity in the ethanol-induced rat ulcer assay) [1] | further results
1 | CCOC(=O)C(=O)Nc1nc(CC)c(CC)s1 [Example 18, ethyl 4,5-diethylthiazol-2-ylcarbamoylcarboxylate] | 81 |  | 
2 | CCOC(=O)C(=O)Nc1nc(C)c(C)s1 [Example 16, ethyl 4,5-dimethylthiazol-2-ylcarbamoylcarboxylate] | 62 |  | 
3 | ethyl 4-methylthiazol-2-ylcarbamoylcarboxylate [Example 14] |  | 59% | 
4 | ethyl 5-methylthiazol-2-ylcarbamoylcarboxylate [Example 15] |  | 48% | 
5 | CC1(C)[C@@H](OC(=O)CCC(=O)O)CC[C@]2(C)[C@H]3C(=O)C=C4[C@@H]5C[C@@](C)(C(=O)O)CC[C@]5(C)CC[C@@]4(C)[C@]3(C)CC[C@@H]12 [carbenoxolone sodium, disodium salt of the hemisuccinate of glycyrrhetinic acid] |  |  | effect on gastric ulcers (gastric ulcers): prevent formation of and to accelerate healing of gastric ulcers
6 | CCOC(=O)C(=O)Nc1nccs1 [ethyl thiazol-2-ylcarbamoylcarboxylate] | 3 | inactive | antiulcer activity (in words) ([1]; compared with compounds of the invention): lacking in the antiulcer activity; antiallergic activity, parenteral (antiallergic activity; high parenteral dose): antiallergic activity; antiallergic activity, oral (antiallergic activity; oral, even at 200 mg./kg.): no significant oral activity
7 | CCOC(=O)C(=O)Nc1nc2c(s1)CCCC2 [Example 23, ethyl 4,5,6,7-tetrahydrobenzthiazol-2-ylcarbamoylcarboxylate] | 51 |  | 
